Measured values as given in patent US10905122B2, “Use of tetrazolinones for combating resistant phytopathogenic fungi on cereals” (BASF SE, priority 2016, dated 2021).

Assays:
Type in all cases: cell-based
[1] = test system: sensitive isolate of Septoria tritici; test: Microtiter test against leaf blotch on wheat, sensitive isolate of Septoria tritici; details: 63 ppm, absorption at 405 nm 7 days after inoculation, 18° C.
Procedure: (§1) Compound I according to the present invention is formulated separately as a stock solution having a concentration of 10000 ppm in dimethyl sulfoxide.
(§2) The stock solution of compound I according to the present invention was mixed according to the ratio, pipetted onto a micro titer plate and diluted with water to the stated concentrations. A spore suspension of a sensitive and a QOI resistant isolate of Septoria tritici in an aqueous biomalt or yeast-bactopeptone-glycerine solution was then added. The plates were placed in a water vapor-saturated chamber at a temperature of 18° C. Using an absorption photometer, the MTPs were measured at 405 nm 7 days after the inoculation.
(§3) Compound I according to the present invention and compound 1-213 from prior art (WO2013/092224) were formulated separately as a stock solution having a concentration of 10000 ppm in dimethyl sulfoxide. The stock solutions of compound I according to the present invention and compound 1-213 from prior art (WO2013/092224) were mixed according to the ratio, pipetted onto a micro titer plate and diluted with water to the stated concentrations. A spore suspension of a sensitive and a QOI resistant isolate of Septoria tritici in an aqueous biomalt or yeast-bactopeptone-glycerine solution was then added. […] Using an absorption photometer, the MTPs were measured at 405 nm 7 days after the inoculation.

[2] = test system: QOI resistant isolate of Septoria tritici; test: Microtiter test against leaf blotch on wheat, QOI resistant isolate of Septoria tritici; details: 63 ppm, absorption at 405 nm 7 days after inoculation, 18° C.
Procedure: as §1, §2, §3

[3] = test system: sensitive isolate of Pyrenophora teres; test: Microtiter test against net blotch, sensitive isolate of Pyrenophora teres; details: Example 1B; 63 ppm; absorption at 405 nm 7 days after inoculation; 18° C.
Source text: as §1
as §2, with “titer plate (MTP) and diluted” for “titer plate and diluted”, “isolate of Pyrenophora teres in an” for “isolate of Septoria tritici in an”

[4] = test system: QOI resistant isolate of Pyrenophora teres; test: Microtiter test against net blotch, QOI resistant isolate of Pyrenophora teres; details: Example 1B; 63 ppm; absorption at 405 nm 7 days after inoculation; 18° C.
Source text: as §1
as §2, with “titer plate (MTP) and diluted” for “titer plate and diluted”, “isolate of Pyrenophora teres in an” for “isolate of Septoria tritici in an”

Cc1cccc(-n2nnn(C)c2=O)c1COc1ccn(-c2ccc(Cl)cc2)n1 [compound I, 1-[2-[[1-(4-chlorophenyl)pyrazol-3-yl]oxymethyl]-3-methyl-phenyl]-4-methyl-tetrazol-5-one]
Growth (%) sensitive isolate of Septoria tritici ([1]; Example 1A): 0% | Growth (%) sensitive isolate of Septoria tritici ([1]; Example 2 comparative): 0% | Growth (%) QOI resistant isolate of Septoria tritici ([2]; Example 1A): 3% | Growth (%) QOI resistant isolate of Septoria tritici ([2]; Example 2 comparative): 3% | Growth (%) sensitive isolate of Pyrenophora teres. [3]: 6% | Growth (%) QOI resistant isolate of Pyrenophora teres [4]: 6%
